Earlier results in patent publication US11865215B2, “Tablet compositions comprising abiraterone acetate” (SYNTHON B.V., priority 2018, dated 2024).

Tests used:
[1] = not given; remark: listed apart in the source

| time to reach maximum plasma concentration of abiraterone (oral administration in the fasting state) | solubility in water [1] | SMILES | effect of taking the tablet with food on absorption (with food) | BCS System class ([1]; compound of low solubility and low permeability) |
| --- | --- | --- | --- | --- |
| – | – | CC(=O)O[C@H]1CC[C@@]2(C)C(=CC[C@@H]3[C@@H]2CC[C@]2(C)C(c4cccnc4)=CC[C@@H]32)C1 [Abiraterone acetate, 3β-acetoxy-17-(3-pyridyl)androsta-5,16-diene] | significantly and undesirably increases the absorption | Class IV |
| approx. 2 hours | less than 0.1 mg/ml | C[C@]12CC[C@H](O)CC1=CC[C@@H]1[C@@H]2CC[C@]2(C)C(c3cccnc3)=CC[C@@H]12 [Abiraterone] | – | – |
